According to PubChem BioAssay (NCI):
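The compound was tested at five concentrations on cells cultured in 96-well plates, with a 48-hour exposure period. Definition used: TGI = concentration required for complete inhibition of growth.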

Legend:
Assay in all cases: NCI-60 cell line screen, 48 h
HCT-15 colon = system: HCT-15 colon
HOP-92 NSCLC = system: HOP-92 NSCLC
KM12 colon = system: KM12 colon
LOX IMVI melanoma = system: LOX IMVI melanoma
NCI-H226 lung = system: NCI-H226 lung
NCI-H23 lung = system: NCI-H23 lung
NCI-H522 lung = system: NCI-H522 lung
PC-3 prostate = system: PC-3 prostate
TK-10 renal = system: TK-10 renal
MALME-3M melanoma = system: MALME-3M melanoma

| SMILES | TGI (HCT-15 colon) [µM] | TGI (HOP-92 NSCLC) [µM] | TGI (KM12 colon) [µM] | TGI (LOX IMVI melanoma) [µM] | TGI (NCI-H226 lung) [µM] | TGI (NCI-H23 lung) [µM] | TGI (NCI-H522 lung) [µM] | TGI (PC-3 prostate) [µM] | TGI (TK-10 renal) [µM] | TGI (MALME-3M melanoma) [µM] |
| --- | --- | --- | --- | --- | --- | --- | --- | --- | --- | --- |
| Cc1cc(Cc2cc(C)c(NC(=O)C(=O)C3CCC4=C(SC5C=CC=CC5N4)C3=O)c(C(C)C)c2)cc(C(C)C)c1NC(=O)C(=O)C1CCC2=C(SC3C=CC=CC3N2)C1=O (stereo unspecified) | > 100 | > 100 | > 100 | > 100 | > 100 | > 100 | 67.2 | 90.9 | > 100 | – |
| OC(c1ccc(C(F)(F)F)cc1)C(F)(F)c1nc2ccccc2o1 (stereo unspecified) | > 100 | > 100 | > 100 | > 100 | > 100 | > 100 | – | > 100 | > 100 | – |
| CC1=C(O)C(=O)C2C(=O)C1C1Cc3ccccc3C21 (stereo unspecified) | > 100 | > 100 | > 100 | > 100 | > 100 | > 100 | > 100 | – | > 100 | > 100 |
| N#CC(=N)c1ncn(-c2ccc(N)cc2)c1N | > 100 | – | > 100 | > 100 | > 100 | > 100 | > 100 | > 100 | > 100 | > 100 |
| CC1(C)OC(=O)N(c2ccccc2)C12C=Cc1cccc([N+](=O)[O-])c1O2 (stereo unspecified) | > 100 | > 100 | > 100 | > 100 | > 100 | > 100 | > 100 | > 100 | > 100 | – |
| COc1ccc(N2C(=O)C3c4[nH]c5ccc(Br)cc5c4C4CCC(C(C)(C)C)CC4C3C2=O)cc1 (stereo unspecified) | > 100 | – | > 100 | > 100 | > 100 | > 100 | > 100 | > 100 | > 100 | > 100 |
| Cc1c2c(c(O)c3c(O)cccc13)C(=O)C1(O)C(O)=C(C(=O)NCNc3ccc(C(N)=O)cn3)C(=O)C(N(C)C)C1C2 (stereo unspecified) | 8.56 | 6.92 | 15.6 | > 100 | > 100 | 39.3 | – | 30.7 | 49.2 | > 100 |
| N#Cc1c(-c2ccc(Cl)cc2)[nH]c(=O)n(C2OC(CO)C(O)C(O)C2O)c1=O (stereo unspecified) | > 100 | > 100 | > 100 | – | > 100 | > 100 | > 100 | > 100 | > 100 | – |
| CN(/N=C/c1cccc2cccnc12)c1ccc(Cl)cc1[N+](=O)[O-] | > 100 | > 100 | > 100 | – | > 100 | > 100 | > 100 | > 100 | > 100 | > 100 |
| COc1ccc(-c2cc(=O)c3cc(OC)ccc3[nH]2)cc1 | – | > 100 | > 100 | > 100 | > 100 | > 100 | > 100 | – | > 100 | > 100 |
| CSc1nc(NC2OC(COC(C)=O)C(OC(C)=O)C(OC(C)=O)C2OC(C)=O)c2c(n1)OCC2=O (stereo unspecified) | > 100 | > 100 | > 100 | > 100 | > 100 | > 100 | > 100 | – | > 100 | > 100 |
| NC(=O)NCCCC(NC(=O)OCCCCCCn1ccc(=O)[nH]c1=O)C(=O)O (stereo unspecified) | > 100 | > 100 | > 100 | > 100 | > 100 | > 100 | – | > 100 | > 100 | – |
| CC(=O)O[C@H]1CC[C@@]2(C)C(=CC[C@@H]3[C@@H]2CC[C@]2(C)c4c(C)nn(-c5ccccc5)c4C[C@@H]32)C1 | > 100 | 70.8 | 86.7 | 27.6 | 75.3 | 31.3 | 45.3 | > 100 | 51 | – |
| O=[N+]([O-])C(=C(N1CCOCC1)N1CCOCC1)/C(Cl)=C(\Cl)Br | 28.9 | 31 | 76.3 | 41.1 | 60.5 | 34.1 | 6.71 | > 100 | – | 30.5 |
| CCOC(=O)C1(C(=O)OCC)OC(C)=NC1(C(=O)OC)C(=O)OC | > 100 | > 26.4 | > 100 | > 100 | > 100 | > 100 | – | > 100 | > 100 | > 100 |
| O=C(O)CCSCc1ccccc1 | > 100 | – | > 100 | > 100 | > 100 | > 100 | > 100 | > 100 | > 100 | > 100 |
| CC(C)N=C(N)NC#N | > 100 | – | > 100 | > 100 | > 100 | – | > 100 | – | – | > 100 |
| CC1=C(c2ccccc2)NC(=S)C(C)C(c2ccccc2)=N1 (stereo unspecified) | > 100 | – | > 100 | > 100 | > 100 | 70.4 | – | – | > 100 | > 100 |
| COc1ccc(CCCNC(=O)c2cc(OC)c(OC)cc2CCO)cc1OC | > 100 | > 100 | > 100 | > 100 | > 100 | > 100 | > 100 | > 100 | > 100 | – |
| S=C1CCSc2c(ccc3ccccc23)N1 | > 100 | – | > 100 | > 100 | > 100 | > 100 | > 100 | > 100 | > 100 | > 100 |
| Cc1ccc(S(=O)(=O)Oc2nc3ccccc3nc2OS(=O)(=O)c2ccc(C)cc2)cc1 | > 100 | – | > 100 | > 100 | > 100 | > 100 | 49.9 | > 100 | > 100 | 35 |
| COC1CC(COCc2ccccc2)CC(OC)O1 (stereo unspecified) | > 100 | > 100 | > 100 | > 100 | > 100 | > 100 | > 100 | – | > 100 | – |
| CC(=O)Nc1ccc2c3c(cc(O)c2c1)N(C(=O)CCCCCCC(=O)N1CC(CCl)c2c1cc(O)c1cc(NC(C)=O)ccc21)CC3CCl (stereo unspecified) | 3.59 | – | 12.7 | 0.361 | – | 0.0228 | 0.0695 | 1.13 | 0.0702 | 0.0233 |
